Data on two molecules can be found in patent US20130245110A1, “USE FOR CANNABINOIDS” (priority 2008, published 2013).

Molecules are shown by their SMILES. Where “and” joins values, the source holds several entries; their conditions need not be identical. Equal values may be shown once.

Test [1] concerns C57B1/6 ob/ob mouse. As to the kind of experiment: Thermic effect of a Complan meal: 3-hour energy expenditure. It counts as in vivo. Also on record: unit not given here. As to conditions: ob/ob mice, day 17.
For test [2], the system named is C57B1/6 ob/ob mouse. Kind of test: Plasma triglycerides. It counts as in vivo. To be noted: ob/ob mice; CBD given on its own (3.0 mg/kg). As for the experimental part: The following are a battery of tests used to elicit the effects of drugs on diseases including type I or II diabetes, obesity, dyslipidaemia, related metabolic disorders and cardiovascular disease. • a) Body weight: Bodyweights of all mice were measured twice weekly during the study. • b) Food intake: Food intake was measured by weight difference taking account of food wastage in the bottom of the cage. • c) Measurement of water consumption: Water intake was calculated daily for each animal, during the treatment period, by weight difference of the water bottle. • d) Oral Glucose Tolerance Test (OGTT): Glucose was dissolved in water (3 g/10 ml) and given to the mice orally at a rate of 3 g/kg. […] Samples were then analysed automatically using a SpectraMax-250 and SoftMax Pro software. • f) Plasma preparation: Blood was collected for the measurement of i) plasma insulin, ii) cholesterol, iii) free fatty acids or iv) triglyceride concentration. • i. Plasma insulin analysis: Plasma insulin was measured using 5 μl of plasma, compared with a mouse insulin standard using a 96-well micro-assay plate • ii. […] The samples were mixed and incubated for 5 minutes before reading at dual wavelengths of 500 and 660 nm. • iii. Plasma free fatty acids: 5 μl samples of plasma were measured into a 96-well assay plate, to which was added 0.2 ml of reagents NEFA C • iv. […]

The subject of another test is rat isolated aortae. Kind of test: In vitro vascular studies by wire myography. To be noted: for Time-dependent relaxation of pre-contracted aorta: 2 h (120 min).
The next test relates to NOD mice. As to conditions: 86% in non-treated controls; cited from earlier work.
The target in the next test is T1, PPARγ (Homo sapiens, UniProt P37231).
T1 construct: expressed in transfected cells
T1 sequence (P37231 1-505): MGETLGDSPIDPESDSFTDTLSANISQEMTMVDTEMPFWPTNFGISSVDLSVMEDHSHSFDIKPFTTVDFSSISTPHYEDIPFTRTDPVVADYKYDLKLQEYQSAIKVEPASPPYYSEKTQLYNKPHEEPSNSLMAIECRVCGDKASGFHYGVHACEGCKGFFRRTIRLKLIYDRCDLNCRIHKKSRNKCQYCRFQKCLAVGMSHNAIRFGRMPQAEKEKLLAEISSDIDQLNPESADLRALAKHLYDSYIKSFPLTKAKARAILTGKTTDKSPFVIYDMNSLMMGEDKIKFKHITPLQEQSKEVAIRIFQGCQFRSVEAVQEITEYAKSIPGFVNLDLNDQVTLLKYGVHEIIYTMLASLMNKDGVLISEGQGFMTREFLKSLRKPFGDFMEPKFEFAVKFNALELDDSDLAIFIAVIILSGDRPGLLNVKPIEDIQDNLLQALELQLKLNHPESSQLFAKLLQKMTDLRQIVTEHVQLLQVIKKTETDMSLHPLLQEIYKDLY
T1 sequence (P19793 1-462 partner): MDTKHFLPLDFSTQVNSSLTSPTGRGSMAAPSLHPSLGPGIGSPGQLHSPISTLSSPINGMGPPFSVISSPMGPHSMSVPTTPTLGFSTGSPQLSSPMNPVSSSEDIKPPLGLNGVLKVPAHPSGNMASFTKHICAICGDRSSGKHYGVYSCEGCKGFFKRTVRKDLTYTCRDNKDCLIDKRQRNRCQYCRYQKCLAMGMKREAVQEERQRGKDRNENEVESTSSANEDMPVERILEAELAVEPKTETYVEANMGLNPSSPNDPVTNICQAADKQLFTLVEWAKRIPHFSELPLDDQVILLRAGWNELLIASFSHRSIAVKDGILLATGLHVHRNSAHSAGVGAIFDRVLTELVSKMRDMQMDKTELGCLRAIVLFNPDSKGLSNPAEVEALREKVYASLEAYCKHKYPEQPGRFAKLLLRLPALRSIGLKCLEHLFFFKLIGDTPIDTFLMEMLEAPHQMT
Kind of test: Transcriptional transactivation assay (luciferase reporter gene 3xPPRE TK luc). As to conditions: any concentration tested. It counts as cell-based. The procedure:
In vitro vascular studies were carried out in rat isolated aortae by wire myography. PPARγ activation was investigated using reporter gene assays, a PPARγ competition-binding assay and an adipogenesis assay.

Turning to `C=C(C)[C@@H]1CCC(C)=C[C@H]1c1c(O)cc(CCCCC)cc1O` [CBD, cannabidiol], the “Thermic effect of a meal: 3-hour energy expenditure per animal” value in the test with C57B1/6 ob/ob mouse [1] (3.0 mg/kg daily oral gavage (combination: both 3.0 mg/kg), listed as pure CBD) is given as “did not significantly increase energy expenditure”. For the same molecule, the Plasma triglycerides entry in the test on C57B1/6 ob/ob mouse [2] is recorded as “no effect on plasma triglycerides”. In addition, in the test with rat isolated aortae (calcium free, high potassium Krebs-Hensleit solution, CBD from 1 μM to 30 μM), the “Potency and maximal contractile response to re-introduction of calcium” value was “significantly reduced in a concentration-dependent manner”. In the test with rat isolated aortae (compared with control), the “Vasorelaxant effect in arteries contracted with high potassium buffer” value is reported as “no difference” and the “Vasorelaxant effect, tone induced with U46619 in calcium free buffer” value is recorded as “significantly blunted”. In the test with rat isolated aortae (rat aorta), the “Vasorelaxant effect in endothelium-denuded versus control aortae” value is given as “similar”. In the test with rat isolated aortae (rat aorta, 10 μM), the “Time-dependent relaxation of pre-contracted aorta” value stood at 69.7±4.0 % relaxation. Besides, the “Residual relaxation (vasorelaxant effect minus effect of vehicle and time)” value in the test on rat isolated aortae (rat aorta, 10 μM, after 2 h) worked out at 50.1±3.3 % relaxation. For the same molecule, the “Basal tension over time” value in the test with rat isolated aortae (rat aorta, 2 h) is -0.03 ± 0.01 g. Besides, the “Time-dependent vascular responses in the presence of AM251” value in the test on rat isolated aortae (rat aorta, CB1 antagonist AM251 1 μM) is “did not significantly affect”. The “Residual vasorelaxant effects in the presence of SR144528” value with rat isolated aortae (rat aorta, CB2 antagonist SR144528 1 μM, between 45 min to 90 min) is “significantly inhibited”. Also, in the test on rat isolated aortae (rat aorta, L-NAME 300 μM, versus control conditions), the “Residual vasorelaxant effect in the presence of L-NAME” value is “not different”. Moreover, in the test with rat isolated aortae (rat aorta, PPARγ antagonist GW9662 1 μM, after 1 h of incubation), the “Residual vasorelaxant effect in the presence of GW9662” value was “significantly reduced”. Also, the “Vascular response over time after pre-treatment with PTX or capsaicin” value in the test on rat isolated aortae (rat arteries, PTX 200 ng ml−1, 2 h or capsaicin 10 μM, 1 h) is given as “no effect”. Besides, in the test with NOD mice, the Incidence of diabetes was 30%.
`CCCc1cc(O)c2c(c1)OC(C)(C)[C@@H]1CCC(C)=C[C@@H]21` [THCV, tetrahydrocannabivarin]: the “Thermic effect of a meal: 3-hour energy expenditure per animal” value was 8.18 and 7.04 in the test with C57B1/6 ob/ob mouse [1] (0.3 mg/kg daily oral gavage (combination: both 0.3 mg/kg)); 8.94 and 8.79 in the test on C57B1/6 ob/ob mouse [1] (3.0 mg/kg daily oral gavage (combination: both 3.0 mg/kg)); “significant effect” in the test with C57B1/6 ob/ob mouse [1] (3.0 mg/kg daily oral gavage (combination: both 3.0 mg/kg), listed as pure THCV). Besides, in the test with rat isolated aortae (pre-contracted aortae, 10 μM), the “Time without effect on tone” value is more than 105 min. The “Time-dependent relaxation of pre-contracted aorta” value in the test with rat isolated aortae (rat aorta, 10 μM) was 28.7±4.6 % relaxation. At PPARγ, the PPARγ transcriptional activity entry is “no effect”.
